Experimental data published in patent US20080131475A1, “Methods of Use of Dual Ppar Agonist Compounds and Drug Delivery Devices Containing Such Compounds” (priority 2005, published 2008).

Key:
[1] = system: restenotic lesion and arterial stenosis in stented coronary arteries; test: swine model of restenosis with coronary stents eluting Compound A; assay type: in vivo; conditions: juvenile swine, poly-n-butyl methacrylate coated stent containing 200 mg Compound A per stent, coronary artery, 7 or 28 days
Description: (§1) The treatment and/or prevention of restenosis in vivo in diabetics and non-diabetics can be evaluated as follows: • 1. The beneficial effects of a compound of the present invention on restenosis are ascertained in a swine model of restenosis. Stainless steel balloon-expandable tubular stents, 18 mm long, are coated with a thin layer of a polymer, i.e., poly-n-butyl methacrylate, containing […] of (R)-1-{4-[5-methyl-2-(4-trifluoromethyl-phenyl)-oxazol-4-ylmethoxy]-benzenesulfonyl}-2,3-dihydro-1H-indole-2-carboxylic acid (Compound A) per stent. Juvenile swine (25-35 kg) undergo placement of bare metal stents which elute Compound A in the left anterior descending, circumflex or right coronary artery. The guiding catheter is used as a reference to obtain a 1.2:1 to 1.4:1 stent-to-artery ratio compared with the baselinevessel diameter. […] At 7 days or 28 days, the animals are euthanized after completion of coronary angiography for quantitative analysis. • Immediately following euthanasia, the hearts are harvested, and the coronary arteries are perfusion-fixed with 10% buffered formalin at 60-80 mm Hg for 30 minutes via the aortic stump. […] Vessel wall expression of proliferating cell nuclear antigen (PCNA) (Santa Cruz Biotechnology), pRb (Pharmingen), monocyte chemotactic protein (MCP)-1 (R&D Systems) or interleukin (IL)-6 (R&D Systems) were evaluated by Western blot analysis. […]

[2] = system: restenotic lesion formation and arterial stenosis in diabetic swine; test: diabetic swine model of restenosis; assay type: in vivo; conditions: streptozotocin-diabetic juvenile swine, procedure as in non-diabetic stent model
Description: as §1

[3] = drug release from coated stent pieces in PBS pH 7.4 or PEG/water; assay type: physicochemical; conditions: 2 cm coated stent pieces, PBS pH 7.4 or PEG 400/water 40/60 v/v, 37° C., solutions changed daily
Description: Four 2 cm pieces of coated stents as described above are placed into 100 mL of phosphate buffer solution (PBS) having a pH of 7.4. Another 4 pieces from each series are placed into 100 mL polyethylene glycol (PEG)/water solution (40/60 v/v, MW of PEG=400). The stent pieces are incubated at 37° C. in a shaker. The buffer and PEG solutions are changed daily and different assays are performed on the solution to determine the released (R)-1-{4-[5-methyl-2-(4-trifluoromethyl-phenyl)-oxazol-4-ylmethoxy]-benzenesulfonyl}-2,3-dihydro-1H-indole-2-carboxylic acid concentrations. Such assays can show a stable release of (R)-1-{4-[5-methyl-2-(4-trifluoromethyl-phenyl)-oxazol-4-ylmethoxy]-benzenesulfonyl}-2,3-dihydro-1H-indole-2-carboxylic acid from coated stents for more than 45 days. By the term “stable-release of (R)-1-{4-[5-methyl-2-(4-trifluoromethyl-phenyl)-oxazol-4-ylmethoxy]-benzenesulfonyl}-2,3-dihydro-1H-indole-2-carboxylic acid” is meant less than 10% of variation of the drug release. Controlled-release techniques used by a person skilled in the art allow an unexpected easy adaptation of the required drug release rate. […]

In the case of `Cc1oc(-c2ccc(C(F)(F)F)cc2)nc1COc1ccc(S(=O)(=O)N2c3ccccc3C[C@@H]2C(=O)O)cc1` [Compound A, (R)-1-{4-[5-methyl-2-(4-trifluoromethyl-phenyl)-oxazol-4-ylmethoxy]-benzenesulfonyl}-2,3-dihydro-1H-indole-2-carboxylic acid], the “extent of restenotic lesion and arterial stenosis” value [1] was “marked reduction”, the “extent of restenotic lesion formation and arterial stenosis” value [2] was “reduction” and the “duration of stable release from coated stents (less than 10% of variation of the drug release)” value [3] was “more than 45 days”.
